The experiment concerns the target Pim-1 (Homo sapiens (Human), UniProt P11309). In words: Pim kinase binding activity assay (Example 901), PIM-1 enzyme, Caliper microfluidic peptide phosphorylation. The class given is biochemical. To be noted: 20 pM PIM-1, 10 μM ATP, 1 μM FAM-peptide, 90 minutes at room temperature. The essentials:
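The readout was microfluidic mobility-shift separation of a FAM-tagged Pim-specific peptide, excited at 488 nm and read at 530 nm, with Ki calculated from percent conversion. Reactions held 20 pM PIM-1, 1 μM peptide and 10 μM ATP in pH 7.2 HEPES/MgCl2/DTT buffer, ran 90 min at room temperature and were stopped with EDTA.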

Pim-1, sequence (P11309 whole entry): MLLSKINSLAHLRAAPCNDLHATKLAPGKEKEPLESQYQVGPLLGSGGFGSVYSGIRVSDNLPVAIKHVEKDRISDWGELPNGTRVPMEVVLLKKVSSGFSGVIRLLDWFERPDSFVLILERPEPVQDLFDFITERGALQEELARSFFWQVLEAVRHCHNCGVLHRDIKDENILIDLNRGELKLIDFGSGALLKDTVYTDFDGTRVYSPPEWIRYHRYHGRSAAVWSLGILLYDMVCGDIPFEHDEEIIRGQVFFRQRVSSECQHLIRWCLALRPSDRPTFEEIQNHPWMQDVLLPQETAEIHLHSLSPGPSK

`Cc1ccc(-c2n[nH]c3cnc(-c4cnn(C)c4)cc23)nc1N1CCC[C@H](O)C1` [Example 441, (S)-1-(3-methyl-6-(5-(1-methyl-1H-pyrazol-4-yl)-1H-pyrazolo[3,4-c]pyridin-3-yl)pyridin-2-yl)piperidin-3-ol]: the Ki stood at 0.062 nM.
In the case of `CCn1cc(-c2cc3c(-c4ccc(C)c(N5CCC[C@@H](N)C5)n4)n[nH]c3cn2)cn1` [Example 443, (R)-1-(6-(5-(1-ethyl-1H-pyrazol-4-yl)-1H-pyrazolo[3,4-c]pyridin-3-yl)-3-methylpyridin-2-yl)piperidin-3-amine] it was 0.1 nM.
In the case of `CCn1cc(-c2cc3c(-c4cccc(N5CCC[C@H](N)C5)n4)n[nH]c3cn2)cn1` [Example 445, (S)-1-(6-(5-(1-ethyl-1H-pyrazol-4-yl)-1H-pyrazolo[3,4-c]pyridin-3-yl)pyridin-2-yl)piperidin-3-amine] it was 0.031 nM; in that of `CCn1cc(-c2cc3c(-c4cccc(N5CCNC(C)(C)C5)n4)n[nH]c3cn2)cn1` [Example 446, 3-(6-(3,3-dimethylpiperazin-1-yl)pyridin-2-yl)-5-(1-ethyl-1H-pyrazol-4-yl)-1H-pyrazolo[3,4-c]pyridine], 0.029 nM.
Then `CCn1cc(-c2cc3c(-c4cccc(N5CCNCC(F)(F)C5)n4)n[nH]c3cn2)cn1` [Example 447, 3-(6-(6,6-difluoro-1,4-diazepan-1-yl)pyridin-2-yl)-5-(1-ethyl-1H-pyrazol-4-yl)-1H-pyrazolo[3,4-c]pyridine], with 0.029 nM.
For `CC(C)(C)n1cc(-c2cc3c(-c4cccc(N5CCNCC5)n4)n[nH]c3cn2)cn1` [Example 448, 5-(1-tert-butyl-1H-pyrazol-4-yl)-3-(6-(piperazin-1-yl)pyridin-2-yl)-1H-pyrazolo[3,4-c]pyridine], the inhibition constant (Ki) is 0.376 nM.
Then `Cn1cc(-c2cc3c(-c4ccc(Br)c(N5CCOCC5)n4)n[nH]c3cn2)cn1` [Example 449, 4-(3-bromo-6-(5-(1-methyl-1H-pyrazol-4-yl)-1H-pyrazolo[3,4-c]pyridin-3-yl)pyridin-2-yl)morpholine], with 0.191 nM; and `CCn1cc(-c2cc3c(-c4ccc(Br)c(N5C[C@@H](N)C[C@@H](F)C5)n4)n[nH]c3cn2)cn1` [Example 454, (3S,5R)-1-(3-bromo-6-(5-(1-ethyl-1H-pyrazol-4-yl)-1H-pyrazolo[3,4-c]pyridin-3-yl)pyridin-2-yl)-5-fluoropiperidin-3-amine], with 0.026 nM.
In the case of `CCn1cc(-c2cc3c(-c4ccc(Br)c(N5C[C@H](N)C[C@@H](F)C5)n4)n[nH]c3cn2)cn1` [Example 455, (3R,5R)-1-(3-bromo-6-(5-(1-ethyl-1H-pyrazoI-4-yl)-1H-pyrazolo[3,4-c]pyridin-3-yl)pyridin-2-yl)-5-fluoropiperidin-3-amine] it was 0.028 nM.
Turning to `Cn1cc(-c2cc3c(-c4ccc(Br)c(N5C[C@@H](N)C[C@@H](F)C5)n4)n[nH]c3cn2)cn1` [Example 456, (3S,5R)-1-(3-bromo-6-(5-(1-methyl-1H-pyrazol-4-yl)-1H-pyrazolo[3,4-c]pyridin-3-yl)pyridin-2-yl)-5-fluoropiperidin-3-amine], affinity was put at a Ki of 0.03 nM.
In the case of `CCn1cc(-c2cc3c(-c4cc(C)cc(N5CCCNCC5)n4)n[nH]c3cn2)cn1` [Example 457, 3-(6-(1,4-diazepan-1-yl)-4-methylpyridin-2-yl)-5-(1-ethyl-1H-pyrazol-4-yl)-1H-pyrazolo[3,4-c]pyridine] it was 0.049 nM; in that of `CCn1cc(-c2cc3c(-c4cccc(N5CCC[C@@](C)(O)C5)n4)n[nH]c3cn2)cn1` [Example 460, (R)-1-(6-(5-(1-ethyl-1H-pyrazol-4-yl)-1H-pyrazolo[3,4-c]pyridin-3-yl)pyridin-2-yl)-3-methylpiperidin-3-ol], 0.265 nM; in that of `CCn1cc(-c2cc3c(-c4cccc(NC5CCCC(N)C5)n4)n[nH]c3cn2)cn1` (stereo not drawn) [Example 461, N1-(6-(5-(1-ethyl-1H-pyrazol-4-yl)-1H-pyrazolo[3,4-c]pyridin-3-yl)pyridin-2-yl)cyclohexane-1,3-diamine], 0.0593 nM.
Then `CCn1cc(-c2cc3c(-c4cccc(N5CCNC(CO)C5)n4)n[nH]c3cn2)cn1` (stereo not drawn) [Example 463, (4-(6-(5-(1-ethyl-1H-pyrazol-4-yl)-1H-pyrazolo[3,4-c]pyridin-3-yl)pyridin-2-yl)piperazin-2-yl)methanol], with 0.084 nM; and `CCn1cc(-c2cc3c(-c4cccc(N5CCC[C@](C)(O)C5)n4)n[nH]c3cn2)cn1` [Example 464, (S)-1-(6-(5-(1-ethyl-1H-pyrazol-4-yl)-1H-pyrazolo[3,4-c]pyridin-3-yl)pyridine-2-yl)-3-methylpiperidin-3-ol], with 0.0721 nM.
Compound `CCn1cc(-c2cc3c(-c4nc(N5CCC[C@H](N)C5)ccc4Cl)n[nH]c3cn2)cn1` [Example 466, (S)-1-(5-chloro-6-(5-(1-ethyl-1H-pyrazol-4-yl)-1H-pyrazolo[3,4-c]pyridin-3-yl)pyridin-2-yl)piperidin-3-amine] displayed an inhibitory constant (Ki) of 0.389 nM.
Then `FC(F)(F)c1cncc(-c2cc3c(-c4cccc(N5CCNCC5)n4)n[nH]c3cn2)c1` [Example 467, 3-(6-(piperazin-1-yl)pyridin-2-yl)-5-(5-(trifluoromethyl)pyridin-3-yl)-1H-pyrazolo[3,4-c]pyridine], with 0.093 nM; and `CCn1cc(-c2cc3c(-c4cccc(N5CCNC(C(F)(F)F)C5)n4)n[nH]c3cn2)cn1` (stereo not drawn) [Example 468, 5-(1-ethyl-1H-pyrazol-4-yl)-3-(6-(3-(trifluoromethyl)piperazin-1-yl)pyridin-2-yl)-1H-pyrazolo[3,4-c]pyridine], with 0.06 nM; and `CCn1cc(-c2cc3c(-c4cc(C(F)(F)F)ccn4)n[nH]c3cn2)cn1` [Example 469, 5-(1-ethyl-1H-pyrazol-4-yl)-3-(4-(trifluoromethyl)pyridin-2-yl)-1H-pyrazolo[3,4-c]pyridine], with 65.6 nM.
In the case of `CS(=O)(=O)c1cncc(-c2cc3c(-c4cccc(N5CCNCC5)n4)n[nH]c3cn2)c1` [Example 470, 5-(5-(methylsulfonyl)pyridin-3-yl)-3-(6-(piperazin-1-yl)pyridin-2-yl)-1H-pyrazolo[3,4-c]pyridine] it was 0.049 nM; in that of `CCn1cc(-c2cc3c(-c4cccc(N5CCC[C@@H](N)CC5)n4)n[nH]c3cn2)cn1` [Example 471, (R)-1-(6-(5-(1-ethyl-1H-pyrazol-4-yl)-1H-pyrazolo[3,4-c]pyridin-3-yl)pyridin-2-yl)azepan-4-amine], 0.073 nM; in that of `CCn1cc(-c2cc3c(-c4cccc(N5CCN(C(C)=O)CC5)n4)n[nH]c3cn2)cn1` [Example 472, 1-(4-(6-(5-(1-ethyl-1H-pyrazol-4-yl)-1H-pyrazolo[3,4-c]pyridin-3-yl)pyridin-2-yl)piperazin-1-yl)ethanone], 0.107 nM.
In the case of `N#CCn1cc(-c2cc3c(-c4cccc(N5CCNCC5)n4)n[nH]c3cn2)cn1` [Example 473, 2-(4-(3-(6-(piperazin-1-yl)pyridin-2-yl)-1H-pyrazolo[3,4-c]pyridin-5-yl)-1H-pyrazol-1-yl)acetonitrile] it was 0.022 nM; in that of `CCn1cc(-c2cc3c(-c4ccc(=O)n(CC5(C(N)=O)CCC5)c4)n[nH]c3cn2)cn1` [Example 475, 1-((5-(5-(1-ethyl-1H-pyrazol-4-yl)-1H-pyrazolo[3,4-c]pyridin-3-yl)-2-oxopyridin-1(2H)-yl)methyl) cyclobutanecarboxamidc], 4.49 nM; in that of `CCn1cc(-c2cc3c(-c4cc(OC)ccn4)n[nH]c3cn2)cn1` [Example 476, 5-(1-ethyl-1H-pyrazol-4-yl)-3-(4-methoxypyridin-2-yl)-1H-pyrazolo[3,4-c]pyridine], 15.7 nM.
The compound `CCc1ccc(-c2n[nH]c3cnc(-c4cnn(CC)c4)cc23)nc1N1CCC[C@H](N)C1` [Example 477, (S)-1-(3-ethyl-6-(5-(1-ethyl-1H-pyrazol-4-yl)-1H-pyrazolo[3,4-c]pyridin-3-yl)pyridin-2-yl)piperidin-3-amine] yielded an inhibition constant Ki of 0.013 nM.
On to `CCn1cc(-c2cc3c(-c4ccc(C(C)C)c(N5CCC[C@H](N)C5)n4)n[nH]c3cn2)cn1` [Example 478, (S)-1-(6-(5-(1-ethyl-1H-pyrazol-4-yl)-1H-pyrazolo[3,4-c]pyridin-3-yl)-3-isopropylpyridin-2-yl)piperidin-3-amine], for which the affinity corresponds to a Ki of 0.02 nM.
In the case of `CCn1cc(-c2cc3c(-c4cncc(N5CCNCC5)n4)n[nH]c3cn2)cn1` [Example 479, 5-(1-ethyl-1H-pyrazol-4-yl)-3-(6-(piperazin-1-yl)pyrazin-2-yl)-1H-pyrazolo[3,4-c]pyridine] it was 0.064 nM; in that of `CCn1cc(-c2cc3c(-c4cccc(N5CCN(C6COC6)CC5)n4)n[nH]c3cn2)cn1` [Example 480, 5-(1-ethyl-1H-pyrazol-4-yl)-3-(6-(4-(oxetan-3-yl)piperazin-1-yl)pyridin-2-yl)-1H-pyrazolo[3,4-c]pyridine], 0.311 nM; in that of `CCn1cc(-c2cc3c(-c4cccc(N5CCC[C@H](N)CC5)n4)n[nH]c3cn2)cn1` [Example 481, (S)-1-(6-(5-(1-ethyl-1H-pyrazol-4-yl)-1H-pyrazolo[3,4-c]pyridin-3-yl)pyridin-2-yl)azepan-4-amine], 0.034 nM.
The compound `CCn1cc(-c2cc3c(-c4cccc(N5CCC[C@@H](NC)C5)n4)n[nH]c3cn2)cn1` [Example 482, (R)-1-(6-(5-(1-ethyl-1H-pyrazol-4-yl)-1H-pyrazolo[3,4-c]pyridin-3-yl)pyridin-2-yl)-N-methylpiperidin-3-amine] had a Ki of 0.147 nM.
As for `CC(O)c1cncc(-c2cc3c(-c4cccc(N5CCNCC5)n4)n[nH]c3cn2)c1` (stereo not drawn) [Example 483, 1-(5-(3-(6-(piperazin-1-yl)pyridin-2-yl)-1H-pyrazolo[3,4-c]pyridin-5-yl)pyridin-3-yl)ethanol], the inhibitory constant (Ki) turned out to be 0.027 nM.
Regarding `CCn1cc(-c2cc3c(-c4cc(C5CC5)ccn4)n[nH]c3cn2)cn1` [Example 484, 3-(4-cyclopropylpyridin-2-yl)-5-(1-ethyl-1H-pyrazol-4-yl)-1H-pyrazolo[3,4-c]pyridine], the inhibitory constant (Ki) was determined as 11.5 nM.

The values above are taken from patent publication US9260425B2 (Genetech, Inc., priority 2011, dated 2016).
